Laboratory results as given in patent US20120308590A1, “IMP-3 OLIGOPEPTIDES AND VACCINES INCLUDING THE SAME” (OncoTherapy Science, Inc., priority 2009, published 2012).
Residues, ends and D or L forms follow the SMILES beside them.

What was measured:
Assay type in all cases: cell-based, human
PANC-1 (IMP-3+, HLA-A2+) = assay: 51Cr release assay of peptide-induced CTLs against cancer cell line
Method: (§1) The expression of IMP-3 was determined by reverse transcription-polymerase chain reaction analysis. […] The DCs were pulsed with 20 micro-g/mL of the candidate peptides in the presence of 4 micro-g/mL beta2-microglobulin (Sigma-Aldrich, St. Louis, Mo., USA) for 2 hours at 37 degrees C. in AIM-V (Invitrogen Japan, Tokyo, Japan) containing 2% heat-inactivated autologous plasma. The cells were then irradiated (40 Gy) and incubated with the CD8^+ T cells. […] After 2 days, these cultures were supplemented with human recombinant IL-2 (PeproTech, Rocky Hill, N.J., USA) to a final concentration of 20 IU/mL. Two additional weekly stimulations with peptide-loaded autologous DCs, using the same procedure, were carried out on days 7 and 14. Six days after the last stimulation, the antigen-specific responses of the induced CTLs were investigated by IFN-gamma ELISPOT assay and ^51Cr release assay. […] For ^51Cr release assay, CTLs were co-cultured with peptide-pulsed T2 cells or cancer cells as a target cells (5×10^3/well) at the indicated effector/target ratio and a standard ^51Cr release assay was done as described previously (Komori H et al., Clin Cancer Res. 2006 May 1; 12 (9):2689-97).

SW620 = assay: as above; details: CTL lines generated from the healthy donors (FIG. 5D)
Method: as §1

SKHep1 = assay: as above; details: CTL lines generated from the healthy donors (FIG. 5D)
Method: as §1

MCF7 (IMP-3-, HLA-A2+) = assay: as above
Method: as §1

A549 (IMP-3+, HLA-A2-) = assay: as above; details: for cytotoxicity: CTLs from lung cancer patient 14 (SEQ ID NOs: 3 and 5) and patient 4 (SEQ ID NO: 6) (FIG. 5B)
Method: as §1

[1] = system: T2 cells pulsed with cognate peptides; assay: 51Cr release assay of peptide-induced CTLs against peptide-pulsed T2 cells
Method: The DCs were pulsed with 20 micro-g/mL of the candidate peptides in the presence of 4 micro-g/mL beta2-microglobulin (Sigma-Aldrich, St. Louis, Mo., USA) for 2 hours at 37 degrees C. in AIM-V (Invitrogen Japan, Tokyo, Japan) containing 2% heat-inactivated autologous plasma. The cells were then irradiated (40 Gy) and incubated with the CD8^+ T cells. […] After 2 days, these cultures were supplemented with human recombinant IL-2 (PeproTech, Rocky Hill, N.J., USA) to a final concentration of 20 IU/mL. Two additional weekly stimulations with peptide-loaded autologous DCs, using the same procedure, were carried out on days 7 and 14. Six days after the last stimulation, the antigen-specific responses of the induced CTLs were investigated by IFN-gamma ELISPOT assay and ^51Cr release assay. […] For ^51Cr release assay, CTLs were co-cultured with peptide-pulsed T2 cells or cancer cells as a target cells (5×10^3/well) at the indicated effector/target ratio and a standard ^51Cr release assay was done as described previously (Komori H et al., Clin Cancer Res. 2006 May 1; 12 (9):2689-97).

[2] = system: MCF7/IMP-3 (MCF7 cells transfected with IMP-3 gene); assay: 51Cr release assay of peptide-induced CTLs against transfected cell line; details: CTL lines generated from the healthy donors (FIG. 5C)
Method: as §1

[3] = system: CD107a on the cell surface of CTLs; assay: CD107a exposure on the cell surface of CTLs (FACS); details: CTLs specific to IMP-3-552-560 stimulated with the named peptide at 1 microgram/ml for 5 hours; mouse IgG staining 0.7%
Method: The exposure of CD107a on the cell surface of the CTLs after antigen stimulation was detected by anti-CD107a antibody. […] These CTLs were cultured for 5 hours at 37 degrees C. and were subsequently stained with PE conjugated anti-human CD8 mAb. All peptides were used at a final concentration of 1 microgram/ml. Events shown are gated for CD8^+ T cells.

[4] = CTLs from lung cancer patient 14 (SEQ ID NOs: 3 and 5) and patient 4 (SEQ ID NO: 6) (FIG. 5B)
[5] = CTLs induced from PBMCs of healthy donor 2 (FIG. 5A)
[6] = CTL lines generated from the healthy donors (FIG. 5C)
[7] = CTL lines generated from the healthy donors (FIG. 5D)
[8] = CTLs induced from PBMCs of healthy donors, not to T2 pulsed with irrelevant HIV-A2 peptide (FIG. 3B)

| Molecule | cytotoxic activity (PANC-1 (IMP-3+, HLA-A2+); [4]) | cytotoxic activity (PANC-1 (IMP-3+, HLA-A2+); [5]) | cytotoxic activity (SW620) | cytotoxic activity (SKHep1) | cytotoxicity (MCF7 (IMP-3-, HLA-A2+); [6]) | cytotoxic activity (MCF7 (IMP-3-, HLA-A2+); [7]) | cytotoxicity (MCF7 (IMP-3-, HLA-A2+); [4]) | cytotoxic activity (MCF7 (IMP-3-, HLA-A2+); [5]) | cytotoxic activity (A549 (IMP-3+, HLA-A2-); [7]) | cytotoxicity (A549 (IMP-3+, HLA-A2-)) | cytotoxic activity (A549 (IMP-3+, HLA-A2-); [5]) | cytotoxic activity [1, 8] | cytotoxicity [2] | CD8+/CD107a+ cells of all CD8+ cells [3] | cytotoxic activity ([1]; CTLs from PBMCs of lung cancer patient 3, no activity to T2 pulsed with HIV peptide (FIG. 4B)) | cytotoxic activity ([1]; CTLs from PBMCs of lung cancer patient 4, no activity to T2 pulsed with HIV peptide (FIG. 4B)) |
| --- | --- | --- | --- | --- | --- | --- | --- | --- | --- | --- | --- | --- | --- | --- | --- | --- |
| CC(C)C[C@H](NC(=O)[C@@H](N)CC(N)=O)C(=O)N[C@@H](CO)C(=O)N[C@@H](CO)C(=O)N[C@@H](C)C(=O)N[C@@H](CCC(=O)O)C(=O)N[C@H](C(=O)N[C@H](C(=O)N[C@H](C(=O)O)C(C)C)C(C)C)C(C)C [SEQ ID NO: 6, NLSSAEVVV] (H-NLSSAEVVV-OH) | showed cytotoxic activity | showed cytotoxic activity | exhibited cytotoxic activity | exhibited cytotoxic activity | not against | not against | without showing cytotoxicity | no cytotoxic activity | not against | without showing cytotoxicity | no cytotoxic activity | exhibited cytotoxic activity | exhibited cytotoxicity | – | – | – |
| CC(C)C[C@H](NC(=O)[C@H](CC(C)C)NC(=O)[C@@H](N)CCCNC(=N)N)C(=O)N[C@H](C(=O)N1CCC[C@H]1C(=O)N[C@H](C(=O)N[C@@H](CCC(N)=O)C(=O)N[C@@H](Cc1ccccc1)C(=O)N[C@H](C(=O)O)C(C)C)[C@@H](C)O)C(C)C [SEQ ID NO: 1, RLLVPTQFV] (H-RLLVPTQFV-OH) | – | showed cytotoxic activity | exhibited cytotoxic activity | exhibited cytotoxic activity | not against | not against | – | no cytotoxic activity | not against | – | no cytotoxic activity | exhibited cytotoxic activity | exhibited cytotoxicity | – | – | – |
| SLYNTYATL [HIV peptide] | – | – | – | – | – | – | – | – | – | – | – | – | – | 1.5% | – | – |
| CC[C@H](C)[C@H](NC(=O)[C@@H](N)CCCCN)C(=O)N1CCC[C@H]1C(=O)N[C@H](C(=O)N[C@@H](CO)C(=O)NCC(=O)N1CCC[C@H]1C(=O)N[C@@H](Cc1ccccc1)C(=O)N[C@@H](CC(C)C)C(=O)O)C(C)C [SEQ ID NO: 5, KIPVSGPFL] (H-KIPVSGPFL-OH) | showed cytotoxic activity | showed cytotoxic activity | – | – | – | – | without showing cytotoxicity | no cytotoxic activity | – | without showing cytotoxicity | no cytotoxic activity | – | – | – | showed cytotoxic activity | – |
| CC[C@H](C)[C@H](NC(=O)[C@H](CCC(=O)O)NC(=O)[C@H](CCC(N)=O)NC(=O)[C@@H](NC(=O)[C@@H](N)CCCCN)[C@@H](C)CC)C(=O)N[C@@H](CC(C)C)C(=O)N[C@H](C(=O)N[C@@H](CCC(N)=O)C(=O)N[C@H](C(=O)O)C(C)C)[C@@H](C)O [SEQ ID NO: 3, KIQEILTQV] (H-KIQEILTQV-OH) | showed cytotoxic activity | showed cytotoxic activity | – | – | – | – | without showing cytotoxicity | no cytotoxic activity | – | without showing cytotoxicity | no cytotoxic activity | – | – | – | – | showed cytotoxic activity |
